Converted amounts (≈) assume the structure as drawn. Blank lines part the entries; values can stand above or below the molecule they belong to.
Legend:
Assay type in all cases: physicochemical
[1] = Dissolution test of Test Example 1 (erlotinib, physiological saline); settings: physiological saline 100 mL, 25 degrees Celsius, 50 rpm
Method: (§1) An active pharmaceutical ingredient of erlotinib (1.6 mg) and the particle 9 (16 mg) obtained in Example 9 were each added to a physiological saline solution (0.9 w/v %) (100 mL) as a solvent, and were dissolved for 30 minutes under the following conditions: a temperature of the solution: 25 degrees Celsius; and a stirring rate: 50 rpm. Then, an amount of the pharmaceutical agent dissolved over time was quantified through liquid chromatography (detector: UV/Vis detector).

[2] = Solubility of the poorly water-soluble (pharmaceutical) compound, Table 1; settings: poorly-water-soluble compound (pharmaceutical compound) itself
[3] = Dissolution test of Test Example 3 (ibuprofen, physiological saline); settings: physiological saline 100 mL, 25 degrees, 50 rpm
Excerpt: Then, an amount of the pharmaceutical agent dissolved over time was quantified through liquid chromatography (detector: UV/Vis detector).

[4] = Dissolution test of Test Example 2 (imatinib, water); settings: water 100 mL, 25 degrees Celsius, 50 rpm
Method: as §1, with “imatinib (7.35” for “erlotinib (1.6”, “10 (73.5” for “9 (16”, “10” for “9”, “water” for “a physiological saline solution (0.9 w/v %)”, “mL),” for “mL) as a solvent,”

Dissolution amount ([1]; 1 min): Not detected
Dissolution amount ([1]; 3 min): 0.8 mg/mL
Dissolution amount ([1]; 5 min): 1 mg/mL
Dissolution amount ([1]; 15 min): 1.1 mg/mL
Dissolution amount ([1]; 30 min): 2 mg/mL
SMILES: C#Cc1cccc(Nc2ncnc3cc(OCCOC)c(OCCOC)cc23)c1 [Erlotinib, erlotinib]

solubility [2]: 20 µg/mL (≈ 97 µM)
Dissolution amount ([3]; 2 min): Not detected
Dissolution amount ([3]; 5 min): Not detected
Dissolution amount ([3]; 15 min): 5.4 mg/mL
Dissolution amount ([3]; 30 min): 9.7 mg/mL
SMILES: CC(C)Cc1ccc(C(C)C(=O)O)cc1 (stereo not drawn) [Ibuprofen, ibuprofen]

Dissolution amount ([4]; 1 min): 9.7 mg/mL
Dissolution amount ([4]; 3 min): 13.4 mg/mL
Dissolution amount ([4]; 5 min): 18 mg/mL
Dissolution amount ([4]; 15 min): 19.8 mg/mL
Dissolution amount ([4]; 30 min): 13.7 mg/mL
SMILES: Cc1ccc(NC(=O)c2ccc(CN3CCN(C)CC3)cc2)cc1Nc1nccc(-c2cccnc2)n1 [Imatinib, imatinib]
